The target of one test is ErbB2 WT (Homo sapiens (Human), UniProt P04626). Description: ErbB Enzyme Assay (HTRF KinEASE-TK), Assay 2. The test is classed as biochemical. For orientation: Time-resolved FRET reads energy transfer from a long-lived donor to a nearby acceptor.
Another test deals with EGFR (Homo sapiens (Human), UniProt P00533). Briefly: ErbB Enzyme Assay (HTRF KinEASE-TK), Assay 3. The test is classed as biochemical.
Test [1] concerns the target ErbB2 with Exon 20 YVMA insertion (HER2-YVMA) (Homo sapiens (Human), UniProt P04626, INS775YVMA). Description: Cellular Phosphorylation Assay, Assay 4 (constitutive ErbB2 phosphorylation, NIH 3T3 cells). The format is cell-based.
The target in another test is EGFR wild type (EGFR WT) (Homo sapiens (Human), UniProt P00533). Description: Cellular Phosphorylation Assay, Assay 5 (EGF-stimulated EGFR phosphorylation, NIH 3T3 cells). The format is cell-based.
Setting [2] is: cellular ErbB2 YVMA phosphorylation.
Setting [3] is: cellular EGFR WT phosphorylation, EGF-stimulated.
The mark [4] stands for this setting: EGF-stimulated EGFR WT phosphorylation.

Molecules are shown by their SMILES.

Sequence of ErbB2 WT (P04626 23-1255): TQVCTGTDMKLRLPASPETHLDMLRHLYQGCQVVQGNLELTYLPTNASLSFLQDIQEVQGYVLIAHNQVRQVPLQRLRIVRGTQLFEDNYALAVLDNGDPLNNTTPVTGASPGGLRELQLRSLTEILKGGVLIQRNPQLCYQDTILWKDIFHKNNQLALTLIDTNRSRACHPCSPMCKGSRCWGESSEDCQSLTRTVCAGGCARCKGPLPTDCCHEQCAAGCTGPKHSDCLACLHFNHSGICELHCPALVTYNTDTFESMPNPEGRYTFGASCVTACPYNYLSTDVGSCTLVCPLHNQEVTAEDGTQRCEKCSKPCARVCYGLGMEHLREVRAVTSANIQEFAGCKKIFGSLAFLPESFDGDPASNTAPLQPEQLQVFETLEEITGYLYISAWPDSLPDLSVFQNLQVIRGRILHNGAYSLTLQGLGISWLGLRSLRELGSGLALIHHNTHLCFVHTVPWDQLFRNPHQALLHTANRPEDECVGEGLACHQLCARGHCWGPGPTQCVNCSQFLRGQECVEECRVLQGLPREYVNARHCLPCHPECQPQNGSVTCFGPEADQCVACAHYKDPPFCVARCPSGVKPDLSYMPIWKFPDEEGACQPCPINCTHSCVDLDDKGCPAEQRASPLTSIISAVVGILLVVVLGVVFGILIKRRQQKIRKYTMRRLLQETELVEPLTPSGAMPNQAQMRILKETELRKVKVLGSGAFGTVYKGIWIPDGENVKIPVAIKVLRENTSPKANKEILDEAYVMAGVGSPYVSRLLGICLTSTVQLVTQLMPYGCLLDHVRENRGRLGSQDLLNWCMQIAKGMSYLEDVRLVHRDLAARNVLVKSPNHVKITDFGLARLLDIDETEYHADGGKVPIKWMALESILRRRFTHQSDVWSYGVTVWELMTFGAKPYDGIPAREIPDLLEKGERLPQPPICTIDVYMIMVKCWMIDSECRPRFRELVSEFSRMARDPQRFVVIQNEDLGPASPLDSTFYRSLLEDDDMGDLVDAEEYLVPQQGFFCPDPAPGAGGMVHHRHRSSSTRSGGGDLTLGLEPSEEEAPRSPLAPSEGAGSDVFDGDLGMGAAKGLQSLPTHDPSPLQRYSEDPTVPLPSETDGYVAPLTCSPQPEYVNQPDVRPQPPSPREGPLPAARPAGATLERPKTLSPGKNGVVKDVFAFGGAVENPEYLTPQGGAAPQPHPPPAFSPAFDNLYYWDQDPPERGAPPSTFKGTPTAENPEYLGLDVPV
Sequence of ErbB2 with Exon 20 YVMA insertion (HER2-YVMA) (P04626 other isoform, or with tags, fused parts or gaps ins YVMA behind 775): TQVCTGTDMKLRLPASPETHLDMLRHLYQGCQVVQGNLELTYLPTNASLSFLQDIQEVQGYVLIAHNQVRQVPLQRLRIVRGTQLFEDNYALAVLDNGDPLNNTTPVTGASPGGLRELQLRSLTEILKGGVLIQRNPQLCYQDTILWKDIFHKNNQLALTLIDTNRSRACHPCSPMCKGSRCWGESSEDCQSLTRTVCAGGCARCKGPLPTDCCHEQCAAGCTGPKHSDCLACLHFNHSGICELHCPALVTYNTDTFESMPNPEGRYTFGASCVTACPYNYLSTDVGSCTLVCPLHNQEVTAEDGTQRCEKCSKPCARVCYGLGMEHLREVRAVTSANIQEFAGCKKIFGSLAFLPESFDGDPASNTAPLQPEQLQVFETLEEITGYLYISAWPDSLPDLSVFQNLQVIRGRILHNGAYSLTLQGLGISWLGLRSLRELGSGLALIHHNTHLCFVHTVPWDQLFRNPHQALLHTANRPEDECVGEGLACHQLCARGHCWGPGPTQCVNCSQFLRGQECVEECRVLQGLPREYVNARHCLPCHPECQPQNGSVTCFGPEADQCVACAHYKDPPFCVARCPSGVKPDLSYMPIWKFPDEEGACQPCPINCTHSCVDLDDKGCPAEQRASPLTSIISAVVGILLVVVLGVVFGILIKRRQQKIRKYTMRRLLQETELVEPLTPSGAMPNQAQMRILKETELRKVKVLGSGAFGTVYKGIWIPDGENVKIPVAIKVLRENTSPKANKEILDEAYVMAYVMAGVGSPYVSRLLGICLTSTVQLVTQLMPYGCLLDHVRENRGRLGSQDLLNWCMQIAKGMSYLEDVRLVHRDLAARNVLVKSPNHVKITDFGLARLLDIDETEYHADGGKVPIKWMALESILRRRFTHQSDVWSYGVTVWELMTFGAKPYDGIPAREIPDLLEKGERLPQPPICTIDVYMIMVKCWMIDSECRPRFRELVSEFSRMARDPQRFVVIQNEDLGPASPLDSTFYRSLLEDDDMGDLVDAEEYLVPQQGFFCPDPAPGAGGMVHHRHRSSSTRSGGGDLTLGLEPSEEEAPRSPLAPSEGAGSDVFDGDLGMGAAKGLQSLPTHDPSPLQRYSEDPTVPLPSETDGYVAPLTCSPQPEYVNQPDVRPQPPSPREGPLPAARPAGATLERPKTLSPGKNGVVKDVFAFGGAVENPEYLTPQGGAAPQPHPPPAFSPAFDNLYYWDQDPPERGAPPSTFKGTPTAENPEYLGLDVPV
Sequence of EGFR (P00533 25-1210): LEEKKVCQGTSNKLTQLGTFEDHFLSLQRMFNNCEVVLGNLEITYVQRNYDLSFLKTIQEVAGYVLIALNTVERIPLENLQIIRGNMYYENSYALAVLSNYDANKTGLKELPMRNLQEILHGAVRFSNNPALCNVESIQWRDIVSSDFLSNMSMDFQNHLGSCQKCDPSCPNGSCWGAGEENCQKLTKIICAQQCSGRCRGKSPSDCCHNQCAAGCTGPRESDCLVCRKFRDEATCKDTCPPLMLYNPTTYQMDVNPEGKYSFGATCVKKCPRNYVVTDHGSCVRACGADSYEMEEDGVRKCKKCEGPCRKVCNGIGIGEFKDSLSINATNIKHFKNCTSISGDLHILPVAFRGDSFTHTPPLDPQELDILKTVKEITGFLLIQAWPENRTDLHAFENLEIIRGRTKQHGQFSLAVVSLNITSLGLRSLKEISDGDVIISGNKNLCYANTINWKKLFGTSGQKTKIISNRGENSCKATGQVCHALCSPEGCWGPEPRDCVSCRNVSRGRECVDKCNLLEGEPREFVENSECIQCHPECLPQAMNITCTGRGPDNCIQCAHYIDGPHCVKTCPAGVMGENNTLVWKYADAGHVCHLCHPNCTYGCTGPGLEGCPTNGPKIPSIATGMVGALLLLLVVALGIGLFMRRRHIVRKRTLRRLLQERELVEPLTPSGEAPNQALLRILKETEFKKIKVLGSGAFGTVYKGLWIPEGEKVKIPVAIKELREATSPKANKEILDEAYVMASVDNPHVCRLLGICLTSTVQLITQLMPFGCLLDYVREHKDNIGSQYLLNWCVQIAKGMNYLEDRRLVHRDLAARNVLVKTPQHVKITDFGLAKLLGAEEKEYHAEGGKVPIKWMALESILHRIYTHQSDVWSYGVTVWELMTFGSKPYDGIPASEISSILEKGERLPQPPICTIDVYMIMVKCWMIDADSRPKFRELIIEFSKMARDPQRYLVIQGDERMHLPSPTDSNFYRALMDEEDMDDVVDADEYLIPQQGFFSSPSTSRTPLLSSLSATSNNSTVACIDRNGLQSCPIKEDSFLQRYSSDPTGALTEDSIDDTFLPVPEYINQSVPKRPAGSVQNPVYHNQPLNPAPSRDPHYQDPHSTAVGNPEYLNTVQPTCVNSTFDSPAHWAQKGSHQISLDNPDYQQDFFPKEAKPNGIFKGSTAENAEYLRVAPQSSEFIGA
Sequence of EGFR wild type (EGFR WT) (P00533 25-1210): as above

As for `C=CC(=O)N1C2CCC1CN(c1ccc3ncnc(Nc4ccc(Oc5ccc6c(c5)ncn6C)c(C)c4F)c3n1)C2` [Example 431], the IC50 against ErbB2 WT (ErbB2 WT enzyme assay) worked out at 44.9 nM; against EGFR (EGFR enzyme assay), 712 nM; in test [1] (setting [2]), 13.1 nM; against EGFR wild type (EGFR WT) (setting [3]), 393 nM.
`C=CC(=O)N1CC[C@@H]2C[C@H]1CN2c1ccc2ncnc(Nc3ccc(Oc4cnc5c(c4)ncn5C)c(C)c3F)c2n1` [Example 317]: the IC50 at ErbB2 WT (ErbB2 WT enzyme assay) was found to be 44 nM; against EGFR (EGFR enzyme assay), 268 nM; in test [1] (setting [2]), 6.4 nM; at EGFR wild type (EGFR WT) (setting [3]) it was 117 nM.
Consider `C=CC(=O)N1CCC(Oc2ccc3ncnc(Nc4cc(Cl)c(Oc5ccc6cn(C)nc6c5)cc4F)c3n2)CC1` [Example 4, 1-(4-((4-((5-chloro-2-fluoro-4-((2-methyl-2H-indazol-6-yl)oxy)phenyl)amino)pyrido[3,2-d]pyrimidin-6-yl)oxy)piperidin-1-yl)prop-2-en-1-one], for which the half-maximal inhibitory concentration (IC50) against ErbB2 WT (ErbB2 WT enzyme) was 876 nM; on EGFR (EGFR enzyme), at least 10000 nM; in test [1] (ErbB2 YVMA phosphorylation) it was 392 nM; on EGFR wild type (EGFR WT) (setting [4]), at least 5000 nM.
The like results for `C=CC(=O)N1CC[C@@H]2CN(c3nc4c(Nc5ccc(Oc6ccn7ncnc7c6)c(C)c5F)ncnc4cc3OC)C[C@@H]21` [Example 154, 1-((3aR,6aR)-5-(4-((4-([1,2,4]triazolo[1,5-a]pyridin-7-yloxy)-2-fluoro-3-methylphenyl)amino)-7-methoxypyrido[3,2-d]pyrimidin-6-yl)hexahydropyrrolo[3,4-d]pyrrol-1(2H)-yl)prop-2-en-1-one] were, in that order, 18 nM, 447 nM, 67.8 nM and 3070 nM.
The like results for `CC#CC(=O)N1CCN(c2ccc3ncnc(Nc4ccc(Oc5ccn6ncnc6c5)c(Cl)c4F)c3n2)C[C@H]1C` [Example 178, (R)-1-(4-(4-((4-([1,2,4]triazolo[1,5-a]pyridin-7-yloxy)-3-chloro-2-fluorophenyl)amino)pyrido[3,2-d]pyrimidin-6-yl)-2-methylpiperazin-1-yl)but-2-yn-1-one] were, in that order, 8 nM, 443 nM, 27.7 nM and 437 nM.
On to `C=CC(=O)N1CCC12CN(c1ccc3ncnc(Nc4cc(Cl)c(Oc5ccn6ncnc6c5)cc4F)c3n1)C2` [Example 343], for which the IC50 was found to be 44.6 nM on ErbB2 WT (ErbB2 WT enzyme assay), 841 nM at EGFR (EGFR enzyme assay), 9.4 nM in test [1] (setting [2]) and 372 nM against EGFR wild type (EGFR WT) (setting [3]).
Consider `C=CC(=O)N1[C@@H]2CC[C@H]1CC(c1ccc3ncnc(Nc4cc(C)c(Oc5ccc6c(c5)ncn6C)cc4F)c3n1)C2` (mixture of isomers) [Example 130, rac-1-((1R,5S)-3-(4-((2-fluoro-5-methyl-4-((1-methyl-1H-benzo[d]imidazol-5-yl)oxy)phenyl)amino)pyrido[3,2-d]pyrimidin-6-yl)-8-azabicyclo[3.2.1]octan-8-yl)prop-2-en-1-one], for which the IC50 was 135 nM against ErbB2 WT (ErbB2 WT enzyme), 7340 nM against EGFR (EGFR enzyme), 19.9 nM in test [1] (ErbB2 YVMA phosphorylation) and at least 5000 nM against EGFR wild type (EGFR WT) (setting [4]).
On to `C=CC(=O)N1CCCCC(c2ccc3ncnc(Nc4cc(C)c(Oc5ccn6ncnc6c5)cc4F)c3n2)C1` (stereo not drawn) [Example 376], for which the IC50 against ErbB2 WT (ErbB2 WT enzyme assay) came to 33.5 nM; against EGFR (EGFR enzyme assay) it was 2110 nM; in test [1] (setting [2]), 36 nM; at EGFR wild type (EGFR WT) (setting [3]), 4490 nM.
For `C=C(C)c1ccc2ncnc(Nc3ccc(Oc4ccc5c(c4)ncn5C)c(C)c3)c2n1` [Example 24, N-(3-methyl-4-((1-methyl-1H-benzo[d]imidazol-5-yl)oxy)phenyl)-6-(prop-1-en-2-yl)pyrido[3,2-d]pyrimidin-4-amine], the IC50 at ErbB2 WT (ErbB2 WT enzyme) was 194 nM; against EGFR (EGFR enzyme), at least 10000 nM; in test [1] (ErbB2 YVMA phosphorylation) it was 70.6 nM; on EGFR wild type (EGFR WT) (setting [4]), at least 5000 nM.
On to `C=CC(=O)N1CCN(c2ccc3ncnc(Nc4ccc(Oc5ccn6ncnc6c5)c(Cl)c4F)c3n2)C[C@H]1COC` [Example 344], for which the half-inhibitory concentration (IC50) was 7.7 nM against ErbB2 WT (ErbB2 WT enzyme assay), 88.4 nM on EGFR (EGFR enzyme assay), 3.4 nM in test [1] (setting [2]) and 46.8 nM against EGFR wild type (EGFR WT) (setting [3]).
In the case of `C=CC(=O)N1CCC(Oc2ccc3ncnc(Nc4cc(Cl)c(Oc5ccc6cn(C)nc6c5)cc4Cl)c3n2)CC1` [Example 2, 1-(4-((4-((2,5-dichloro-4-((2-methyl-2H-indazol-6-yl)oxy)phenyl)amino)pyrido[3,2-d]pyrimidin-6-yl)oxy)piperidin-1-yl)prop-2-en-1-one], the IC50 is 1290 nM on ErbB2 WT (ErbB2 WT enzyme), at least 10000 nM at EGFR (EGFR enzyme), 1140 nM in test [1] (ErbB2 YVMA phosphorylation) and at least 5000 nM on EGFR wild type (EGFR WT) (setting [4]).
For `C=CC(=O)N1CCCC[C@H](c2ccc3ncnc(Nc4ccc(Oc5ccc6c(c5)ncn6C)c(C)c4)c3n2)C1` (single isomer, unassigned) [Example 172], in that order: 5.2 nM, 720 nM, 13.9 nM and 1960 nM.
In the case of `C=CC(=O)N1CC[C@H]2C[C@H](c3ccc4ncnc(Nc5ccc(Oc6ccn7ncnc7c6)c(C)c5F)c4n3)C[C@H]21` [Example 382], the IC50 on ErbB2 WT (ErbB2 WT enzyme assay) stood at 15 nM; on EGFR (EGFR enzyme assay) it was 584 nM; in test [1] (setting [2]) it was 21 nM; on EGFR wild type (EGFR WT) (setting [3]), 339 nM.
The like results for `C=CC(=O)N1[C@H](C)CN(c2ccc3ncnc(Nc4ccc(Oc5ccc6c(c5)ncn6C)c(C)c4F)c3n2)C[C@H]1C` [Example 255] were, in that order, 795 nM, at least 10000 nM, 172 nM and at least 5000 nM.
Take `C=CC(=O)N1CCN(c2ccc3ncnc(Nc4ccc(Oc5ccn6ncnc6c5)c(Cl)c4F)c3n2)C[C@@H]1C` [Example 90, (S)-1-(4-(4-((4-([1,2,4]triazolo[1,5-a]pyridin-7-yloxy)-3-chloro-2-fluorophenyl)amino)pyrido[3,2-d]pyrimidin-6-yl)-2-methylpiperazin-1-yl)prop-2-en-1-one]: the concentration for half-maximal inhibition (IC50) against ErbB2 WT (ErbB2 WT enzyme) amounted to 13.4 nM; at EGFR (EGFR enzyme) it was 519 nM; in test [1] (ErbB2 YVMA phosphorylation) it was 5.9 nM; against EGFR wild type (EGFR WT) (setting [4]), 575 nM.
Take `C=CC(=O)N1CCCC(c2ccc3ncnc(Nc4cc(Cl)c(Oc5ccn6ncnc6c5)cc4F)c3n2)CC1` (stereo not drawn) [Example 400]: the 50% inhibitory concentration (IC50) is 16 nM on ErbB2 WT (ErbB2 WT enzyme assay), 3240 nM at EGFR (EGFR enzyme assay), 45.6 nM in test [1] (setting [2]) and at least 5000 nM at EGFR wild type (EGFR WT) (setting [3]).
As to `C=CC(=O)N1CC[C@@H]2C[C@H]1CN2c1ccc2ncnc(Nc3ccc(Oc4ccc5c(c4)ncn5C)c(C)c3F)c2n1` [Example 29, 1-((1 S,5R)-6-(4-((2-fluoro-3-methyl-4-((1-methyl-1H-benzo[d]imidazol-5-yl)oxy)phenyl)amino)pyrido[3,2-d]pyrimidin-6-yl)-2,6-diazabicyclo[3.2.1]octan-2-yl)prop-2-en-1-one], the IC50 on ErbB2 WT (ErbB2 WT enzyme) was found to be 36.5 nM; on EGFR (EGFR enzyme) it was 311 nM; in test [1] (ErbB2 YVMA phosphorylation) it was 5.8 nM; against EGFR wild type (EGFR WT) (setting [4]), 118 nM.
Consider `C=CC(=O)N1CCN(c2ccc3ncnc(Nc4cc(C)c(Oc5ccn6ncnc6c5)cc4F)c3n2)C[C@H]1C(C)(C)C` [Example 310], for which the IC50 at ErbB2 WT (ErbB2 WT enzyme assay) was 10000 nM; against EGFR (EGFR enzyme assay), at least 10000 nM; in test [1] (setting [2]) it was 33.4 nM; against EGFR wild type (EGFR WT) (setting [3]) it was at least 5000 nM.
Regarding `C=CC(=O)N1CCC(Oc2nc3c(Nc4ccc(Oc5ccc6cn(C)nc6c5)c(C)c4F)ncnc3cc2OC)CC1` [Example 151, 1-(4-((4-((2-fluoro-3-methyl-4-((2-methyl-2H-indazol-6-yl)oxy)phenyl)amino)-7-methoxypyrido[3,2-d]pyrimidin-6-yl)oxy)piperidin-1-yl)prop-2-en-1-one], the IC50 against ErbB2 WT (ErbB2 WT enzyme) worked out at 41.6 nM; at EGFR (EGFR enzyme) it was 126 nM; in test [1] (ErbB2 YVMA phosphorylation), 28.1 nM; on EGFR wild type (EGFR WT) (setting [4]) it was 548 nM.
For the compound `C=CC(=O)N1CCN(c2ccc3ncnc(Nc4cc(Cl)c(Oc5ccn6ncnc6c5)cc4F)c3n2)C[C@H]1COC` [Example 345], the IC50 at ErbB2 WT (ErbB2 WT enzyme assay) worked out at 9.4 nM; against EGFR (EGFR enzyme assay), 174 nM; in test [1] (setting [2]) it was 5.1 nM; against EGFR wild type (EGFR WT) (setting [3]), 115 nM.
For `C=CC(=O)N1C[C@H]2CC[C@@H]1C[C@@H]2c1ccc2ncnc(Nc3ccc(Oc4cnc5c(c4)ncn5C)c(C)c3F)c2n1` [Example 422], in that order: 157 nM, 4010 nM, 51.7 nM and at least 5000 nM.
Consider `CC#CC(=O)N1CCN(c2ccc3ncnc(Nc4ccc(Oc5ccn6ncnc6c5)c(C)c4F)c3n2)CC1(C)C` [Example 179, 1-(4-(4-((4-([1,2,4]triazolo[1,5-a]pyridin-7-yloxy)-2-fluoro-3-methylphenyl)amino)pyrido[3,2-d]pyrimidin-6-yl)-2,2-dimethylpiperazin-1-yl)but-2-yn-1-one], for which the IC50 against ErbB2 WT (ErbB2 WT enzyme) was 74 nM; against EGFR (EGFR enzyme), 7630 nM; in test [1] (ErbB2 YVMA phosphorylation) it was 103 nM; against EGFR wild type (EGFR WT) (setting [4]), at least 5000 nM.
The like results for `C=CC(=O)N1C[C@@H](c2ccc3ncnc(Nc4cc(C)c(Oc5ccc6c(c5)ncn6C)cc4F)c3n2)CC[C@H]1C` [Example 170, 1-((2R,5S)-5-(4-((2-fluoro-5-methyl-4-((1-methyl-1H-benzo[d]imidazol-5-yl)oxy)phenyl)amino)pyrido[3,2-d]pyrimidin-6-yl)-2-methylpiperidin-1-yl)prop-2-en-1-one] were, in that order, 261 nM, at least 10000 nM, 44.9 nM and at least 5000 nM.
With `C=CC(=O)N1C[C@@H]2CC[C@H]1CN2c1ccc2ncnc(Nc3ccc(Oc4cnc5c(c4)ncn5C)c(C)c3F)c2n1` [Example 320], the IC50 against ErbB2 WT (ErbB2 WT enzyme assay) amounted to 45.6 nM; at EGFR (EGFR enzyme assay), 436 nM; in test [1] (setting [2]) it was 9.4 nM; against EGFR wild type (EGFR WT) (setting [3]) it was 78.3 nM.

What is called IC50 is the concentration at which inhibition is half-maximal. Read a low IC50 as greater potency in that assay.

Values taken from patent publication US12447153B2, “HER2 mutation inhibitors” (Array BioPharma Inc., priority 2021, dated 2025).
